Test results: patent publication US20200384124A1, “VECTOR FOR PHARMACOLOGICALLY ACTIVE MATER-INSOLUBLE MOLECULES, AND PROCESS OF PREPARING SAME” (priority 2017, published 2020)

Legend:
U-87 MG cells = assay: MTT cytotoxicity test of PTX and NPC2-PTX (2D); assay type: cell-based, human
Method: The volume of seeding and treatment is maintained at 150 μL per well and each condition is carried out with a conventional incubation at 37° C. […] This test uses as reagent 3-(4,5-Dimethylthiazol-2-yl)-2,5-Diphenyltetrazolium Bromide (MTT), which is converted into formazan (crystal violet) by living cells. The latter absorbent at the wavelength of 600 nm is detectable by an absorbance measurement.
(§1) As soon as the formazan crystals are visible in the cells under a light field microscope, the medium is replaced by 150 μl of dimethylsulfoxide (DMSO). The cells are then lysed, the formazan crystals dissolved, and the absorbance is measured with a Multiskan spectrophotometer (Ascent, Labtec Systems with a filter at 600 nm.
(§2) The percentage of viability is obtained by comparing the absorbance value of the treated cells with the absorbance value of the untreated control cells, which is considered as a reference and equivalent to 100% of viability. The standard deviation is calculated from 3 independent experiments.

HMEC-1 cells = assay: MTT cytotoxicity test of PTX and NPC2-PTX (2D); assay type: cell-based; conditions: Homo sapiens, HMEC-1, 72 h
Method: (§3) The volume of seeding and treatment is maintained at 150 μL per well and each condition is carried out with a conventional incubation at 37° C. A cell viability test is carried out by an MTT test after 72 h of treatment. This test uses as reagent 3-(4,5-Dimethylthiazol-2-yl)-2,5-Diphenyltetrazolium Bromide (MTT), which is converted into formazan (crystal violet) by living cells. The latter absorbent at the wavelength of 600 nm is detectable by an absorbance measurement.
as §1, §2

SK-N-SH cells = assay: MTT cytotoxicity test of PTX and NPC2-PTX (2D); assay type: cell-based; conditions: Homo sapiens, 72 h
Method: as §3, §1, §2

[1] = tested on: microtubular network in U-87-MG and HMEC-1 cells; assay: Indirect immunofluorescence of tubulin, comparison with PTX (Example 24); assay type: cell-based, human; conditions: 10, 50 and 100 nM, 6 h of treatment
Method: The U-87-MG and HMEC-1 cells are seeded on Lab-Tek® culture chambers (Nunc). […] After 6 h of treatment, the medium is replaced by a solution of ice-cold methanol making it possible to fix and permeabilize the cells. […] The labeling of the nucleus is carried out with a solution of DAPI or 4,6-diamidino-2-phenylindole (0.25 μg/ml; Sigma) for 2 min. The blade is finally mounted with Prolong® (Invitrogen) antifading. The observation is carried out with an epifluorescence microscope (Leica DM-IRBE) coupled with a digital camera (Princeton Instruments; CCD camera coolsnap FX).

U-87 MG spheroids [2] = assay: 3D culture spheroid size by optical microscopy; assay type: cell-based, human
Method: Spheroids (cells in 3D culture) help to better represent the tumor environment. They are composed of necrotic cells in their center and proliferating cells in the periphery. […] The cells are maintained at 37° C. and 5% of CO2 and 10 μl of fresh medium are added every two days to all the wells (controls and treated). […] Before treatment and then every two days, the spheroids are observed under an optical microscope coupled to a camera (Nikon ECLIPSE TS100), at magnification*4.;

U-87 MG spheroids [3] = assay: 3D culture spheroid viability by Alamar Blue test; assay type: cell-based, human; conditions: 2.8 times the IC50, Alamar Blue
Method: Spheroids (cells in 3D culture) help to better represent the tumor environment. They are composed of necrotic cells in their center and proliferating cells in the periphery. […] The cells are maintained at 37° C. and 5% of CO2 and 10 μl of fresh medium are added every two days to all the wells (controls and treated). […] This measurement is done in one step and uses a reagent based on resazurin, which is reduced by living cells. The reduced compound (=resofurin) is detectable by fluorescence (λex=584 nm and λem=620 nm) and the signal measured is proportional to the number of living cells. Once the above treatment has been set up, 10 μL of Alamar Blue are added to each well 7 days or 14 days after treatment and the cells are incubated 12 h before the fluorescence measurement. The data are obtained by reading the fluorescence with POLARstar Omega (BMG LABETCH) after excitation at 584 nm and reading the emission at 620 nm.

CC(=O)O[C@H]1C(=O)[C@@]2(C)[C@H]([C@H](OC(=O)c3ccccc3)[C@]3(O)C[C@H](OC(=O)[C@H](O)[C@@H](NC(=O)c4ccccc4)c4ccccc4)C(C)=C1C3(C)C)[C@]1(OC(C)=O)CO[C@@H]1C[C@@H]2O [PTX, paclitaxel]
inhibition of cell viability in 2D (U-87 MG cells; 2.8 times the IC50): 70% | IC50 (U-87 MG cells; Homo sapiens, U-87 MG, 72 h): 9.2 ± 1.2 nM | IC50 (HMEC-1 cells): 5.7 ± 2 nM | IC50 (SK-N-SH cells): 40.5 ± 7.8 nM | effects on microtubular network and cell shape [1]: the microtubular network is disturbed | diameter of the spheroid at day 14 (U-87 MG spheroids [2]; 2.8 times IC50 (PTX 25 nM, NPC2-PTX 70 nM)): 757+/−22 μm | diameter of the spheroid at day 14 (U-87 MG spheroids [2]; 4 times the IC50 (PTX 40 nM, NPC2-PTX 100 nM)): 389+/−33 μm | diameter of the spheroid at day 14 (U-87 MG spheroids [2]; IC50 calculated in 2D (PTX 9 nM, NPC2-PTX 25 nM)): 800+/−11 μm | decrease / inhibition of cell viability in 3D (U-87 MG spheroids [3]): 10%
